Source: patent US11091494B2, “Crystal form of acalabrutinib and preparation method and use thereof” (Crystal Pharmaceutical (Suzhou) Co., Ltd., priority 2018, dated 2021)

Columns and labels:
Format in all cases: physicochemical
[1] = Intrinsic dissolution rate in pH 2.5 HCl/NaCl aqueous solution; conditions: for Cumulative dissolution / IDR (intrinsic dissolution rate): pH 2.5 HCl/NaCl, 37° C.; for Cumulative dissolution: 0.5 cm^2 pellet; for IDR relative to that of Form I in WO2017002095A1: pH 2.5 HCl/NaCl solution; for IDR (intrinsic dissolution rate): slope over 0-45 minutes
Protocol: (§1) Approximately 200 mg of Form A and Form I in WO2017002095A1 were added into the die, compressed at 10 kN and held for 1 minute to obtain a pellet having a surface area of 0.5 cm^2. The whole tool with the pellet was transferred to a dissolution apparatus to test the intrinsic dissolution rate. The slope (mg/min) was calculated according to the data within 0-45 minutes. Intrinsic dissolution rate (IDR, mg/min/cm^2) was further calculated according to the slope.
as §1, with “Form D” for “Form A”
as §1, with “Form F” for “Form A”, “intrinsic dissolution.” for “intrinsic dissolution rate.”
as §1, with “Form G” for “Form A”, “intrinsic dissolution.” for “intrinsic dissolution rate.”
as §1, with “Form CS15” for “Form A”, “intrinsic dissolution.” for “intrinsic dissolution rate.”

[2] = Compressibility (tensile strength of compressed tablet); conditions: about 80 mg, φ6 mm round tooling, compressed at 10 kN
Protocol: (§2) Approximately 80 mg of Form A and Form I in WO2017002095A1 were weighed into the dies of a φ6 mm round tooling, compressed at 10 kN manually, then stored in a desiccator for 24 hours until complete elastic recovery. Radial crushing force (hardness, H) was tested with an intelligent tablet hardness tester. Diameter (D) and thickness (L) were tested with a caliper. Tensile strength of the powder that with different hardness was calculated with the following formula: T=2H/πDL. Under a certain force, the greater the tensile strength, the better the compressibility.
as §2, with “Form D” for “Form A”, “manually, and” for “manually,”, “powder” for “powder that”
as §2, with “of Form F and Form” for “of Form A and Form”, “kN manually, and then stored” for “kN manually, then stored”, “tested with caliper. Tensile” for “tested with a caliper. Tensile”, “the powder with different” for “the powder that with different”
Approximately 80 mg of Form G and Form I of WO2017002095A1 were weighed into the dies of a φ6 mm round tooling, compressed at 10 kN manually, and then stored in a desiccator for 24 hours until complete elastic recovery. Radial crushing force (hardness, H)) was tested with an intelligent tablet hardness tester. Diameter (D) and thickness (L) were tested with caliper. Tensile strength of the powder with different hardness was calculated with the following formula: T=2H/πDL. Under a certain force, the greater the tensile strength, the better the compressibility.
as §2, with “of Form CS15 and Form” for “of Form A and Form”, “kN manually, and then stored” for “kN manually, then stored”, “tested with caliper. Tensile” for “tested with a caliper. Tensile”, “the powder with different” for “the powder that with different”

[3] = Stability of crystalline form on storage, checked by XRPD; conditions: for Solid form: XRPD; for Chemical purity on storage: at least 2 months
Protocol: Approximately 10 mg of Form A of the present disclosure was weighed and stored at different conditions of 25° C./60% RH in open dish, 25° C./60% RH in closed dish, 40° C./75% RH in open dish, and 40° C./75% RH in closed dish. Crystalline forms were checked by XRPD.
Approximately 10 mg of Form D of the present disclosure was weighed and stored at different conditions of 25° C./60% RH in closed dish, 25° C./60% RH in open dish, 40° C./75% RH in closed dish. Crystalline form was checked by XRPD.
Approximately 10 mg of Form F of the present disclosure was weighed and stored at different conditions of 25° C./60% RH in closed dish, 25° C./60% RH in open dish, and 40° C./75% RH in closed dish, 40° C./75% RH in open dish. Crystalline forms were checked by XRPD.
Approximately 10 mg of Form G of the present disclosure was weighed and stored at 25° C./60% RH in closed dish. Crystalline forms were checked by XRPD.
Approximately 10 mg of Form CS15 of the present disclosure was weighed and stored at different conditions of 25° C./60% RH in open dish, 25° C./60% RH in closed dish. Crystalline forms were checked by XRPD.

[4] = 25° C./60% RH in closed dish, 2 months
[5] = 25° C./60% RH in open and closed dishes
[6] = 25° C./60% RH in open dish, 2 months
[7] = 40° C./75% RH in closed dish, 2 months
[8] = 40° C./75% RH in open dish, 2 months

Structure (SMILES)	Cumulative dissolution ([1]; 0 min) [mg]	Cumulative dissolution ([1]; 5 min) [mg]	Cumulative dissolution ([1]; 10 min) [mg]	Cumulative dissolution ([1]; 15 min) [mg]	Cumulative dissolution ([1]; 20 min) [mg]	Cumulative dissolution ([1]; 25 min) [mg]	Cumulative dissolution ([1]; 30 min) [mg]	Cumulative dissolution ([1]; 35 min) [mg]	Cumulative dissolution ([1]; 45 min) [mg]	IDR relative to that of Form I in WO2017002095A1 [1] [times]	IDR (intrinsic dissolution rate) [1] [mg/min/cm^2]	Tensile strength [2] [MPa]	Time kept stable (crystalline state doesn't change) ([3]; 25° C./60% RH in closed dish)	Solid form [3, 4]	Chemical purity on storage [3, 5]	Time kept stable (crystalline state doesn't change) ([3]; 25° C./60% RH in open dish)	Solid form [3, 6]	Time kept stable (crystalline state doesn't change) ([3]; 40° C./75% RH in closed dish)	Solid form [3, 7]	Solid form ([3]; Initial)	also measured
CC#CC(=O)N1CCC[C@H]1c1nc(-c2ccc(C(=O)Nc3ccccn3)cc2)c2c(N)nccn12 [Form F, (S)-4-(8-amino-3-(1-(but-2-ynoyl)pyrrolidin-2-yl)imidazo[1,5-a]pyrazin-1-yl)-N-(pyridin-2-yl)benzamide]	0.00	1.31	2.47	3.99	5.30	6.50	7.26	8.74	10.44	1.3	0.4898	1.02	at least 2 months	Form F	remains substantially unchanged	at least 2 months	Form F	at least 2 months	Form F		Time kept stable (crystalline state doesn't change) ([3]; 40° C./75% RH in open dish): at least 2 months; Solid form [3, 8]: Form F
CC#CC(=O)N1CCC[C@H]1c1nc(-c2ccc(C(=O)Nc3ccccn3)cc2)c2c(N)nccn12 [Form G, (S)-4-(8-amino-3-(1-(but-2-ynoyl)pyrrolidin-2-yl)imidazo[1,5-a]pyrazin-1-yl)-N-(pyridin-2-yl)benzamide]	0.00	1.28	2.36	3.68	4.76	5.51	6.71	7.65	9.50	1.2	0.4396	1.62	at least 2 months	Form G						Form G	Chemical purity on storage ([3]; 25° C./60% RH in closed dish): remains substantially unchanged
CC#CC(=O)N1CCC[C@H]1c1nc(-c2ccc(C(=O)Nc3ccccn3)cc2)c2c(N)nccn12 [Form A, (S)-4-(8-amino-3-(1-(but-2-ynoyl)pyrrolidin-2-yl)imidazo[1,5-a]pyrazin-1-yl)-N-(pyridin-2-yl)benzamide]	0.00	1.13	2.42	3.80	4.73	5.79	6.72	7.83	9.93	1.2	0.4520	1.35	at least 2 months	Form A	remains substantially unchanged	at least 2 months	Form A	at least 2 months	Form A	Form A	Time kept stable (crystalline state doesn't change) ([3]; 40° C./75% RH in open dish): at least 2 months; Solid form [3, 8]: Form A
CC#CC(=O)N1CCC[C@H]1c1nc(-c2ccc(C(=O)Nc3ccccn3)cc2)c2c(N)nccn12 [Form CS15, (S)-4-(8-amino-3-(1-(but-2-ynoyl)pyrrolidin-2-yl)imidazo[1,5-a]pyrazin-1-yl)-N-(pyridin-2-yl)benzamide]	0.00	1.06	2.34	4.20	5.60	7.89	8.86	10.60	12.41	1.6	0.5778	1.18	at least 2 months	Form CS15	remains substantially unchanged	at least 2 months	Form CS15			Form CS15	
